Values quoted from earlier work in patent publication US6375634B1, “APPARATUS AND METHOD TO ENCAPSULATE, KILL AND REMOVE MALIGNANCIES, INCLUDING SELECTIVELY INCREASING ABSORPTION OF X-RAYS AND INCREASING FREE-RADICAL DAMAGE TO RESIDUAL TUMORS TARGETED BY IONIZING AND NON-IONIZING RADIATION THERAPY” (Oncology Innovations, Inc., priority 1997, dated 2002).
Entries after “also recorded” stand apart in the source; their conditions may differ.

Tests used:
DNA [1] = tested on: DNA
DNA [2] = settings: in the presence of hydrogen peroxide, among ferric iron chelates
[3] = iron overload states
[4] = presence of l-histidine
[5] = tested on: human pancreatic adenocarcinoma AsPC-1 cells
[6] = tested on: Chinese hamster ovary cells

OO [hydrogen peroxide]
DNA injury (DNA [1]; 80 micromoles hydrogen peroxide, absence of histidine): no injury

O=C(O)CN(CC(=O)O)CC(=O)O.[Fe+3] [ferric nitrilo tri-acetic acid]
DNA damage (DNA [2]): produced the most DNA damage

[Fe] [iron]
tissue iron level at which the heart sustains injury [3]: approximately one thousand

N[C@@H](Cc1c[nH]cn1)C(=O)O [l-histidine]
DNA destroyed (DNA [1]; 80 micromoles hydrogen peroxide with 300 micromoles l-histidine present): more than 50%
sensitivity of hydrogen peroxide resistant cell lines [4]: rendered sensitive

Cc1c(N)nc([C@H](CC(N)=O)NC[C@H](N)C(N)=O)nc1C(=O)N[C@H](C(=O)N[C@H](C)[C@@H](O)[C@H](C)C(=O)N[C@H](C(=O)NCCc1nc(-c2nc(C(=O)NCCC[S+](C)C)cs2)cs1)[C@@H](C)O)[C@@H](O[C@@H]1O[C@@H](CO)[C@@H](O)[C@H](O)[C@@H]1O[C@H]1O[C@H](CO)[C@@H](O)[C@H](OC(N)=O)[C@@H]1O)c1c[nH]cn1.[Br-] [Bleomycin A2]
cell cycle effect in flow-cytometric analysis [5]: induced G2/M block
induction of apoptosis [5]: did not induce apoptosis

ferritin
toxicity ([6]; 32 micrograms/ml): nontoxic; also recorded: not toxic
reduction of clonogenic-cell survival after x-irradiation ([6]; 32 micrograms/ml ferritin, 4.0 Gray): approximately 75%
clonogenic-cell survival after x-irradiation ([6]; 32 micrograms/ml ferritin, 4.0 Gray (about 0.66 without ferritin)): ~0.17
